Results on 31 molecules are retold here after patent publication EP4631941A1 (Jiangsu Tasly Diyi Pharmaceutical Co., Ltd., priority 2022, dated 2024).

pIC50: −log10 of the molar value. Counter-ions that a name gives are not always drawn. Like-named read-outs stand apart in the source and are kept apart here.

The assay deals with T1, DYRK2 kinase (Homo sapiens, UniProt Q92630).
T1 sequence (Q92630 1-601): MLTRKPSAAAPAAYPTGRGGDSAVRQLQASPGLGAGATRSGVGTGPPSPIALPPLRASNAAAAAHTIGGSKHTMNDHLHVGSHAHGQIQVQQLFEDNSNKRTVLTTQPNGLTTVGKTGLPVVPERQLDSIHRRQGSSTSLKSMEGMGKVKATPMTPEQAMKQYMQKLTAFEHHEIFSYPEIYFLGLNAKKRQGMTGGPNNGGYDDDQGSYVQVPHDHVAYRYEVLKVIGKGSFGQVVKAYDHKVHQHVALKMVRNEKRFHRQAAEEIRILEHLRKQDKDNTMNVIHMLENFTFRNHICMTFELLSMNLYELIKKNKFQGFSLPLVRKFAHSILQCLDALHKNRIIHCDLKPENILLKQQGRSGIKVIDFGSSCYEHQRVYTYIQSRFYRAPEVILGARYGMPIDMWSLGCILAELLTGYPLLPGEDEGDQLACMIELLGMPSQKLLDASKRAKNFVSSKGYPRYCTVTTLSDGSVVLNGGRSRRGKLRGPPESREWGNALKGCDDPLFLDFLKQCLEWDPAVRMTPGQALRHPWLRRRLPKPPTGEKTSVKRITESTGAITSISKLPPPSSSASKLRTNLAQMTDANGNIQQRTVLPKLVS
Kind of assay: DYRK2 kinase activity analysis assay (33P-ATP, DYRKtide substrate, P81 filter paper). It counts as biochemical. The note with it: 2 hours at room temperature; for IC50: IC50 (nM); for pIC50: read-out: IC50.

What is called IC50 is the point on the concentration scale where inhibition reaches its midpoint. Read a low IC50 as higher potency. With `CN(C)c1nc2cc(-c3nc(Nc4ccc(C(=O)N5CCN(C(=O)OC(C)(C)C)CC5)nc4)ncc3F)ccc2s1` [Example 31], the IC50 was 590 nM.

As usually defined, the pIC50 is −log10 of the IC50, conventionally taken in molar units. As to `CCOC(=O)N1CCN(C(=O)c2ccc(Nc3ncc(F)c(-c4ccc5nc(N(C)C)sc5c4)n3)nc2)CC1` [Example 38, ethyl 4-(6-((4-(2-(dimethylamino)benzothiazole-6-yl)-5-fluoropyrimidine-2-yl)amino)nicotinoyl)piperazine-1-carboxylate], the negative-log IC50 (pIC50) was 7.04.

In the case of `c1cc(-c2ccc3scnc3c2)nc(Nc2ccc(CN3CCNCC3)cn2)n1` [Example 8, 4-(benzothiazole-5-yl)-N-(5-(piperazine-1-methylene)pyridine-2-yl)pyrimidine-2-amine hydrochloride], the pIC50 was 6.20.

On to `CC(=O)N1CCN(C(=O)c2ccc(Nc3ncc(F)c(-c4ccc5scnc5c4)n3)nc2)CC1` [Example 15, 1-(4-(6-((4-(benzothiazole-5-yl)-5-fluoropyrimidine-2-yl)amino)nicotinoyl)piperazine-1-yl)ethyl-1-one], for which the pIC50 was 7.55.

Take `CC(C)(C)OC(=O)N1CCN(C(=O)c2ccc(Nc3ncc(F)c(-c4ccc5scnc5c4)n3)nc2)CC1` [Example 19, tert-butyl 4-(6-((4-(benzothiazole-5-yl)-5-fluoropyrimidine-2-yl)amino)nicotinoyl)piperazine-1-carboxylate]: the pIC50 is 7.15.

For the molecule `Cc1cnc(Nc2ccc(CN3CCNCC3)cn2)nc1-c1ccc2scnc2c1` [Example 2, hydrochloride], the pIC50 is 5.85.

Regarding `Cc1cnc(Nc2ccc(C(=O)N3CCN(C(=O)OC(C)(C)C)CC3)cn2)nc1-c1ccc2scnc2c1` [Example 4, tert-butyl 4-(6-((4-(benzothiazole-5-yl)-5-methylpyrimidine-2-yl)amino)nicotinoyl)piperazine-1-carboxylate], the pIC50 is 6.57.

In the case of `CN(C)c1nc2ccc(-c3nc(Nc4ccc(C(=O)N5CCN(c6ccccc6)CC5)cn4)ncc3F)cc2s1` [Example 37, (6-((4-(2-(dimethylamino)benzothiazole-6-yl)-5-fluoropyrimidine-2-yl)amino)pyridine-3-yl)(4 - arylpiperazine-1-yl)ketone], half-maximal inhibition (IC50) was put at 683 nM.

As to `CCN1CCN(C(=O)c2ccc(Nc3ncc(F)c(-c4ccc5sc(N(CC)CC)nc5c4)n3)cn2)CC1` [Example 33, (5-((4-(2-(diethylamino)benzothiazole-5-yl)-5-fluoropyrimidine-2-yl)amino)pyridine-2-yl)(4-ethylpiperazine-1-yl)ketone], the pIC50 is 7.54.

With `Fc1cnc(Nc2ccc(CN3CCNCC3)cn2)nc1-c1ccc2scnc2c1` [Example 13, 4-(benzothiazole-5-yl)-5-fluoro-N-(5-(piperazine-1-methylene)pyridine-2-yl)pyrimidine-2-amine hydrochloride], the pIC50 is 6.67.

On to `CC(C)(C)OC(=O)N1CCN(c2ccc(Nc3ncc(F)c(-c4ccc5scnc5c4)n3)cn2)CC1` [Example 25, tert-butyl 4-(5-((4-(benzothiazole-5-yl)-5-fluoropyrimidine-2-yl)amino)pyridine-2-yl)piperazine-1-carboxylate], for which the pIC50 was 7.80.

For the molecule `COc1cnc(Nc2ccc(C(=O)N3CCNCC3)cn2)nc1-c1ccc2scnc2c1` [Example 6, (6-((4-(benzothiazole-5-yl)-5-methoxypyrimidine-2-yl)amino)pyridine-3-yl)(piperazine-1-yl)k etone hydrochloride], the pIC50 was 6.11.

On to `O=C(c1ccc(Nc2ncc(F)c(-c3ccc4scnc4c3)n2)nc1)N1CCN(c2ccccc2)CC1` [Example 17, (6-((4-(benzothiazole-5-yl)-5-fluoropyrimidine-2-yl)amino)pyridine-3-yl)(4-phenylpiperazine-1-yl)ketone], for which the pIC50 was 7.25.

With `CC(C)(C)OC(=O)N1CCN(C(=O)c2cnc(Nc3ncc(F)c(-c4ccc5scnc5c4)n3)nc2)CC1` [Example 22, tert-butyl 4-(2-((4-(benzothiazole-5-yl)-5-fluoropyrimidine-2-yl)amino)pyrimidine-5-carbonyl)piperazine-1-c arboxylate], the pIC50 is 6.27.

`Cc1cnc(Nc2ccc(CN3CCN(C(C)C)CC3)cn2)nc1-c1ccc2scnc2c1` [Example 1, 4-(benzothiazole-5-yl)-N-(5-((4-isopropylpiperazine-1-yl)methyl)pyridine-2-yl)-5-methylpyri midine-2-amine]: the pIC50 was 5.83.

As to `O=C(c1ccc(Nc2ncc(F)c(-c3ccc4scnc4c3)n2)cn1)N1CCNCC1` [Example 26, (5-((4-(benzothiazole-5-yl)-5-fluoropyrimidine-2-yl)amino)pyridine-2-yl)(piperazine-1-yl)ketone hydrochloride], the pIC50 is 8.40.

On to `CN(C)c1nc2cc(-c3nc(Nc4ccc(C(=O)N5CCNCC5)cn4)ncc3F)ccc2s1` [Example 27, (6-((4-(2-(dimethylamino)benzothiazole-5-yl)-5-fluoropyrimidine-2-yl)amino)pyridine-3-yl)(piperazine-1-yl)ketone hydrochloride], for which the pIC50 is 7.74.

For the molecule `CC(=O)N1CCN(C(=O)c2ccc(Nc3ncc(F)c(-c4ccc5nc(N(C)C)sc5c4)n3)nc2)CC1` [Example 35, 1-(4-(6-((4-(2-(dimethylamino)benzothiazole-6-yl)-5-fluoropyrimidine-2-yl)amino)nicotinoyl)piperazine-1-yl)ethyl-1-one], half-maximal inhibition (IC50) required 22 nM.

`COc1cnc(Nc2ccc(CN3CCNCC3)cn2)nc1-c1ccc2scnc2c1` [Example 7, 4-(benzothiazole-5-yl)-5-methoxy-N-(5-(piperazine-1-ylmethyl)pyridine-2-yl)pyrimidine-2-amine hydrochloride]: the pIC50 was 6.11.

Turning to `CCN1CCN(C(=O)c2cnc(Nc3ncc(F)c(-c4ccc5scnc5c4)n3)nc2)CC1` [Example 21, (2-((4-(benzothiazole-5-yl)-5-fluoropyrimidine-2-yl)amino)pyrimidine-5-yl)(4-ethylpiperazine-1-yl)ketone], the pIC50 is 5.98.

As to `CC(C)N1CCN(C(=O)c2ccc(Nc3ncc(F)c(-c4ccc5sc(N(C)C)nc5c4)n3)cn2)CC1` [Example 30, (5-((4-(2-(dimethylamino)benzothiazole-5-yl)-5-fluoropyrimidine-2-yl)amino)pyridine-2-yl)(4-isopropylpiperazine-1-yl)ketone], the negative logarithm of the IC50 (pIC50) is 7.89.

Regarding `CCN(CC)c1nc2cc(-c3nc(Nc4ccc(C(=O)N5CCN(C(C)C)CC5)nc4)ncc3F)ccc2s1` [Example 34, (5-((4-(2-(diethylamino)benzothiazole-5-yl)-5-fluoropyrimidine-2-yl)amino)pyridine-2-yl)(4-isopropylpiperazine-1-yl)ketone], the pIC50 was 7.35.

Take `CCN1CCN(C(=O)c2ccc(Nc3ncc(F)c(-c4ccc5scnc5c4)n3)cn2)CC1` [Example 24, (5-((4-(benzothiazole-5-yl)-5-fluoropyrimidine-2-yl)amino)pyridine-2-yl)(4-ethylpiperazine-1-yl)ketone]: the pIC50 was 7.82.

With `CCN1CCN(C(=O)c2ccc(Nc3ncc(F)c(-c4ccc5scnc5c4)n3)nc2)CC1` [Example 14, (6-((4-(benzothiazole-5-yl)-5-fluoropyrimidine-2-yl)amino)pyridine-3-yl)(4-ethylpiperazine-1-yl)ketone], the pIC50 was 7.66.

In the case of `O=C(c1cnc(Nc2ncc(F)c(-c3ccc4scnc4c3)n2)nc1)N1CCNCC1` [Example 23, (2-((4-(benzothiazole-5-yl)-5-fluoropyrimidine-2-yl)amino)pyrimidine-5-yl)(piperazine-1-yl)k etone hydrochloride], the pIC50 was 6.16.

Regarding `CCN(CC)c1nc2cc(-c3nc(Nc4ccc(C(=O)N5CCNCC5)cn4)ncc3F)ccc2s1` [Example 28, (6-((4-(2-(diethylamino)benzothiazole-5-yl)-5-fluoropyrimidine-2-yl)amino)pyridine-3-yl)(piperazine-1-yl)ketone hydrochloride], the pIC50 was 7.46.

Turning to `CCN1CCN(C(=O)c2ccc(Nc3ncc(F)c(-c4ccc5sc(N(C)C)nc5c4)n3)cn2)CC1` [Example 29, (5-((4-(2-(dimethylamino)benzothiazole-5-yl)-5-fluoropyrimidine-2-yl)amino)pyridine-2-yl)(4-ethylpiperazine-1-yl)ketone], the pIC50 is 7.96.

With `CC(C)(C)OC(=O)N1CCN(C(=O)c2ccc(Nc3nccc(-c4ccc5scnc5c4)n3)nc2)CC1` [Example 10, tert-butyl 4-(6-((4-(benzothiazole-5-yl)pyrimidine-2-yl)amino)nicotinoyl)piperazine-1-carboxylate], the pIC50 is 7.00.

For the molecule `CCOC(=O)N1CCN(C(=O)c2ccc(Nc3ncc(F)c(-c4ccc5scnc5c4)n3)nc2)CC1` [Example 18, ethyl 4-(6-((4-(benzothiazole-5-yl)-5-fluoropyrimidine-2-yl)amino)nicotinoyl) piperazine-1-carboxylate], the pIC50 was 7.54.

With `O=C(c1ccc(Nc2nccc(-c3ccc4scnc4c3)n2)nc1)N1CCNCC1` [Example 11, (6-((4-(benzothiazole-5-yl)pyrimidine-2-yl)amino)pyridine-3-yl)(piperazine-1-yl)ketone hydrochloride], the pIC50 is 6.72.

For the molecule `CCN1CCN(Cc2ccc(Nc3ncc(F)c(-c4ccc5scnc5c4)n3)nc2)CC1` [Example 12], the negative-log IC50 (pIC50) was 6.37.
